# Source: patent publication US11426420B2, “Inhibitors of short-chain dehydrogenase activity for treating coronary disorders” (CASE WESTERN RESERVE UNIVERSITY, priority 2017, dated 2022)
# Experiments:
# [1] = stability on incubation with hepatocyte cell lines; assay type: in vitro ADME
# [2] = system: mice; experiment: toxicity after IP injection into mice
# [3] = stability on incubation with hepatocyte extracts; assay type: in vitro ADME
# [4] = system: PGE2 production by cell lines; experiment: PGE2 production by cell lines; assay type: cell-based
# [5] = chemical stability in aqueous solutions; assay type: physicochemical; conditions: over broad pH range
# [6] = system: doxorubicin induced cardiomyopathy; experiment: doxorubicin induced cardiomyopathy in mice, one cycle (Set A), echocardiography; assay type: in vivo, male C57bl6J mice
# Experimental: FIG. 1 illustrates schematically the design of a study in which male C57bl6J mice received 15 mpk cumulative dose of doxorubicin in 7 doses of 2.15 mpk administered daily over study days 1-7. A 15-PGDH inhibitor, (+) SW033291, was administered by oral gavage at a dose of 25 mpk twice daily over study days 1-14, as a solution in a vehicle of 10% ethanol and 90% soybean oil. Cardiac ejection fraction was determined by echocardiography on study days 14 and 28.
# FIG. 2 illustrates a graph showing cardiac ejection fraction at study day 1, at the start of the experiment, at study day 14 and at study day 28. Black bars show measurement in control mice receiving either oral saline or oral vehicle. Blue bars show results in doxorubicin treated mice receiving oral vehicle. Red bars show results in doxorubicin treated mice also receiving (+) SW033291. Doxorubicin treated mice receiving oral vehicle (blue bars) show a 10% decrease in ejection fraction on day 14 and day 28 as compared to non-doxorubicin treated control mice receiving vehicle only for 14 days. In contrast, mice treated with both doxorubicin and (+) SW033291 only a 2% (day 14) or 1.5% (day 28) decrease in ejection fraction. The difference in ejection fraction in doxorubicin treated mice receiving or not receiving (+) SW033291 was statiscally significant (P<0.05) on both days 14 and 28.
# [7] = system: cardiac myocytes; experiment: DNA damage in cardiac myocytes, gamma-H2AX immunostaining; assay type: in vivo; conditions: doxorubicin treated mice
# [8] = stability on incubation with mouse liver extracts; assay type: in vitro ADME
# [9] = biological target: T1, recombinant 15-PGDH (Homo sapiens, UniProt P15428); experiment: inhibition of recombinant 15-PGDH; assay type: biochemical
# T1 sequence (P15428 1-266): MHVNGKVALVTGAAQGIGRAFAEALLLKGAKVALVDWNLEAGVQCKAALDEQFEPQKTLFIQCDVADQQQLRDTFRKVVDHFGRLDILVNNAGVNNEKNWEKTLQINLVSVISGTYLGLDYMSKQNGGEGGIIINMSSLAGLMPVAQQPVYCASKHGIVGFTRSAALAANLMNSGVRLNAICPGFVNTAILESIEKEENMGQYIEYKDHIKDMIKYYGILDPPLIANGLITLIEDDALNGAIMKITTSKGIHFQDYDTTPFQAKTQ
# [10] = stability on incubation with rat liver extracts; assay type: in vitro ADME
# [11] = stability on incubation with human liver extracts; assay type: in vitro ADME
# [12] = system: doxorubicin induced cardiomyopathy; experiment: doxorubicin induced cardiomyopathy in mice, 2 consecutive cycles of doxorubicin (Set B); assay type: in vivo
# [13] = biological target: T2, cardiac 15-PGDH (Mus musculus, UniProt Q8VCC1); experiment: cardiac 15-PGDH activity and cardiac PGE2 after oral dosing of mice; assay type: in vivo
# T2 construct: from tissue; host or cells: mouse heart (male C57bl6J mice are named for the study design)
# T2 sequence (Q8VCC1 1-269): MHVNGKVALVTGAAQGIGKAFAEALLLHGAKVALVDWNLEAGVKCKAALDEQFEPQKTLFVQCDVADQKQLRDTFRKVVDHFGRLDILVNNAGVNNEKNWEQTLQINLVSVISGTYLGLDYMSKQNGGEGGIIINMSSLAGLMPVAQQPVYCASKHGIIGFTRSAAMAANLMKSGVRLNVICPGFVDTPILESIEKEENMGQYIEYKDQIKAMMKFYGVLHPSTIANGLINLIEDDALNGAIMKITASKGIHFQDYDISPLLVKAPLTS
# [14] = day 42, after two cycles of doxorubicin, versus vehicle control
smiles,measurement,setting,value
CCCC[S+]([O-])c1sc2nc(-c3cccs3)cc(-c3ccccc3)c2c1N (stereo not shown) [formula (IX)],chemical stability when incubated with hepatocyte cell lines,[1],chemically stable
same,toxicity,[2]; IP into mice at 0.3 μmole/per mouse twice daily for 21 days,no toxicity
same,immediate toxicity over 24 hours,[2]; IP into mice at 0.6 μmole/per mouse,no immediate toxicity
same,immediate toxicity over 24 hours,[2]; IP into mice at 1.2 μmole/per mouse,no immediate toxicity
same,chemical stability when incubated with hepatocyte extracts,[3],chemically stable
same,PGE2 production by cell lines,[4],increase PGE2 production
same,chemical stability in aqueous solutions,[5],chemically stable
"COc1cccc2c1C(=O)c1c(O)c3c(c(O)c1C2=O)C[C@@](O)(C(=O)CO)C[C@@H]3O[C@H]1C[C@H](N)[C@H](O)[C@H](C)O1 [doxorubicin, reference compound]",decrease in ejection fraction,"[6]; day 14, doxorubicin 15 mpk cumulative plus oral vehicle, compared to non-doxorubicin treated control mice",10%
same,decrease in ejection fraction,"[6]; day 28, doxorubicin 15 mpk cumulative plus oral vehicle, compared to non-doxorubicin treated control mice",10%
same,"DNA damage in cardiac myocytes, gamma-H2AX immunostaining",[7],induction of DNA damage
CCCC[S+]([O-])c1sc2nc(-c3nccs3)cc(-c3cnc(C)n3C)c2c1N (stereo not shown) [formula (X)],immediate toxicity over 24 hours,[2]; IP into mice at 50 mg/kg body weight,no immediate toxicity
same,chemical stability when incubated with liver extracts,[8],chemically stable
same,concentration at which recombinant 15-PGDH is inhibited,[9],3 nM
same,concentration at which PGE2 production by cell lines is increased,[4],20 nM
same,chemical stability when incubated with liver extracts,[10],chemically stable
same,chemical stability when incubated with liver extracts,[11],chemically stable
same,chemical stability in aqueous solutions,[5],chemically stable
"CCCC[S+]([O-])c1sc2nc(-c3cccs3)cc(-c3ccccc3)c2c1N (single isomer, unassigned; (+)) [(+) SW033291]",ejection fraction,"[12]; day 14, following the first cycle of doxorubicin",improvement of ejection fraction
same,"atrial natriuretic factor, real-time PCR in cardiac tissue",[12]; [14],lower levels of atrial natriuretic factor
same,"expression of connective tissue growth factor, real-time PCR in cardiac tissue",[12]; [14],lower levels of expression of connective tissue growth factor
same,lung weight,[12]; [14],lesser lung weight
same,ventricular weight,[12]; [14],lesser ventricular weight
same,total body weight,"[12]; day 42, after two cycles of doxorubicin, versus vehicle treated mice",greater total body weight
same,ejection fraction,"[12]; day 42, following the second cycle of doxorubicin",improvement of ejection fraction
same,"ejection fraction (EF %), extended follow-up","[6]; Set A, follow-up to day 56",maintenance of improvement in ejection fraction
same,decrease in ejection fraction,"[6]; day 14, doxorubicin treated mice, 25 mpk oral gavage twice daily days 1-14",2%
same,decrease in ejection fraction,"[6]; day 28, doxorubicin treated mice, 25 mpk oral gavage twice daily days 1-14",1.5%
same,prevention of doxorubicin induced cardiomyopathy,[6]; mice,prevented doxorubicin induced cardiomyopathy
same,"cardiac contractility, echocardiogram","[6]; study day 14, doxorubicin treated mice, versus oral vehicle",markedly greater cardiac contractility
same,inhibition of activity of cardiac 15-PGDH,"[13]; 25 mpk oral, starting at 30 minutes, persisting for 3 hours after administration",approximately 80%
same,cardiac PGE2,[13]; 6 hours after drug treatment,increased cardiac PGE2
